Results published in paper PMC11439681, “The identification of potent dual-target monopolar spindle 1 (MPS1) and histone deacetylase 8 (HDAC8) inhibitors through pharmacophore modeling, molecular docking, molecular dynamics simulations, and biological evaluation” (Frontiers in Pharmacology, 2024).

Columns and labels:
[1] = tested on: panel of 68 kinases and other histone deacetylases; experiment: In vitro selectivity assay, whole panel; assay type: biochemical; conditions: read-out: IC50 on these kinases and other histone deacetylases
Description: (§1) The inhibitory effects of compound MPH-5 on a panel of 68 kinases and other histone deacetylases were evaluated to assess the selectivity profile of MPH-5. This experiment was conducted by ICE Bioscience Inc. (Beijing, China).

JAK1 = JAK1 (Homo sapiens, UniProt P23458); experiment: In vitro selectivity assay; assay type: biochemical; conditions: selectivity panel
Description: as §1

BMX = target: T1, BMX (Homo sapiens, UniProt P51813); experiment: In vitro selectivity assay; assay type: biochemical; conditions: selectivity panel
T1 construct: ICE Bioscience Inc. (assay service)
Description: as §1

FGR = FGR (Homo sapiens, UniProt P09769); experiment: In vitro selectivity assay; assay type: biochemical; conditions: selectivity panel
Description: as §1

CSF1R = target: T2, CSF1R (Homo sapiens, UniProt P07333); experiment: In vitro selectivity assay; assay type: biochemical; conditions: selectivity panel
T2 construct: ICE Bioscience Inc. (assay service)
Description: as §1

FES = FES (Homo sapiens, UniProt P07332); experiment: In vitro selectivity assay; assay type: biochemical; conditions: selectivity panel
Description: as §1

NTRK1 = target: T3, NTRK1 (Homo sapiens, UniProt P04629); experiment: In vitro selectivity assay; assay type: biochemical; conditions: selectivity panel
T3 construct: ICE Bioscience Inc. (contract assay provider)
Description: as §1

LYN = target: T4, LYN (Homo sapiens, UniProt P07948); experiment: In vitro selectivity assay; assay type: biochemical; conditions: selectivity panel
T4 construct: ICE Bioscience Inc. (contract assay provider)
Description: as §1

FGFR1 = FGFR1 (Homo sapiens, UniProt P11362); experiment: In vitro selectivity assay; assay type: biochemical; conditions: selectivity panel
Description: as §1

NTRK3 = target: T5, NTRK3 (Homo sapiens, UniProt Q16288); experiment: In vitro selectivity assay; assay type: biochemical; conditions: selectivity panel
T5 construct: ICE Bioscience Inc. (contract assay provider)
Description: as §1

AXL = target: T6, AXL (Homo sapiens, UniProt P30530); experiment: In vitro selectivity assay; assay type: biochemical; conditions: selectivity panel
T6 construct: ICE Bioscience Inc. (assay service)
Description: as §1

EPHB4 = EPHB4 (Homo sapiens, UniProt P54760); experiment: In vitro selectivity assay; assay type: biochemical; conditions: selectivity panel
Description: as §1

SYK = target: T7, SYK (Homo sapiens, UniProt P43405); experiment: In vitro selectivity assay; assay type: biochemical; conditions: selectivity panel
T7 construct: ICE Bioscience Inc. (contract assay provider)
Description: as §1

NTRK2 = target: T8, NTRK2 (Homo sapiens, UniProt Q16620); experiment: In vitro selectivity assay; assay type: biochemical; conditions: selectivity panel
T8 construct: ICE Bioscience Inc. (contract assay provider)
Description: as §1

EPHA3 = target: T9, EPHA3 (Homo sapiens, UniProt P29320); experiment: In vitro selectivity assay; assay type: biochemical; conditions: selectivity panel
T9 construct: ICE Bioscience Inc. (assay service)
Description: as §1

HDAC1 = target: T10, HDAC1 (Homo sapiens, UniProt Q13547); experiment: In vitro selectivity assay; assay type: biochemical; conditions: selectivity panel
T10 construct: ICE Bioscience Inc. (contract assay provider)
Description: as §1

TYRO3 = TYRO3 (Homo sapiens, UniProt Q06418); experiment: In vitro selectivity assay; assay type: biochemical; conditions: selectivity panel
Description: as §1

BLK = target: T11, BLK (Homo sapiens, UniProt P51451); experiment: In vitro selectivity assay; assay type: biochemical; conditions: selectivity panel
T11 construct: ICE Bioscience Inc. (assay service)
Description: as §1

ALK = target: T12, ALK (Homo sapiens, UniProt Q9UM73); experiment: In vitro selectivity assay; assay type: biochemical; conditions: selectivity panel
T12 construct: ICE Bioscience Inc. (assay service)
Description: as §1

EPHB3 = target: T13, EPHB3 (Homo sapiens, UniProt P54753); experiment: In vitro selectivity assay; assay type: biochemical; conditions: selectivity panel
T13 construct: ICE Bioscience Inc. (assay service)
Description: as §1

PIM1 = PIM1 (Homo sapiens, UniProt P11309); experiment: In vitro selectivity assay; assay type: biochemical; conditions: selectivity panel
Description: as §1

ABL1 = target: T14, ABL1 (Homo sapiens, UniProt P00519); experiment: In vitro selectivity assay; assay type: biochemical; conditions: selectivity panel
T14 construct: ICE Bioscience Inc. (assay service)
Description: as §1

HCK = HCK (Homo sapiens, UniProt P08631); experiment: In vitro selectivity assay; assay type: biochemical; conditions: selectivity panel
Description: as §1

PTK2B = target: T15, PTK2B (Homo sapiens, UniProt Q14289); experiment: In vitro selectivity assay; assay type: biochemical; conditions: selectivity panel
T15 construct: ICE Bioscience Inc. (contract assay provider)
Description: as §1

RAF1 = RAF1 (Homo sapiens, UniProt P04049); experiment: In vitro selectivity assay; assay type: biochemical; conditions: selectivity panel
Description: as §1

FYN = FYN (Homo sapiens, UniProt P06241); experiment: In vitro selectivity assay; assay type: biochemical; conditions: selectivity panel
Description: as §1

EPHB1 = target: T16, EPHB1 (Homo sapiens, UniProt P54762); experiment: In vitro selectivity assay; assay type: biochemical; conditions: selectivity panel
T16 construct: ICE Bioscience Inc. (assay service)
Description: as §1

EPHA8 = target: T17, EPHA8 (Homo sapiens, UniProt P29322); experiment: In vitro selectivity assay; assay type: biochemical; conditions: selectivity panel
T17 construct: ICE Bioscience Inc. (assay service)
Description: as §1

CDK2 = target: T18, CDK2 (Homo sapiens, UniProt P24941); experiment: In vitro selectivity assay; assay type: biochemical; conditions: selectivity panel
T18 construct: ICE Bioscience Inc. (assay service)
Description: as §1

HDAC4 = target: T19, HDAC4 (Homo sapiens, UniProt P56524); experiment: In vitro selectivity assay; assay type: biochemical; conditions: selectivity panel
T19 construct: ICE Bioscience Inc. (contract assay provider)
Description: as §1

JAK2 = JAK2 (Homo sapiens, UniProt O60674); experiment: In vitro selectivity assay; assay type: biochemical; conditions: selectivity panel
Description: as §1

EPHA1 = target: T20, EPHA1 (Homo sapiens, UniProt P21709); experiment: In vitro selectivity assay; assay type: biochemical; conditions: selectivity panel
T20 construct: ICE Bioscience Inc. (assay service)
Description: as §1

HDAC3 = target: T21, HDAC3 (Homo sapiens, UniProt O15379); experiment: In vitro selectivity assay; assay type: biochemical; conditions: selectivity panel
T21 construct: ICE Bioscience Inc. (contract assay provider)
Description: as §1

FRK = FRK (Homo sapiens, UniProt P42685); experiment: In vitro selectivity assay; assay type: biochemical; conditions: selectivity panel
Description: as §1

ZAP70 = ZAP70 (Homo sapiens, UniProt P43403); experiment: In vitro selectivity assay; assay type: biochemical; conditions: selectivity panel
Description: as §1

EPHA5 = target: T22, EPHA5 (Homo sapiens, UniProt P54756); experiment: In vitro selectivity assay; assay type: biochemical; conditions: selectivity panel
T22 construct: ICE Bioscience Inc. (assay service)
Description: as §1

ERBB2 = ERBB2 (Homo sapiens, UniProt P04626); experiment: In vitro selectivity assay; assay type: biochemical; conditions: selectivity panel
Description: as §1

MERTK = target: T23, MERTK (Homo sapiens, UniProt Q12866); experiment: In vitro selectivity assay; assay type: biochemical; conditions: selectivity panel
T23 construct: ICE Bioscience Inc. (contract assay provider)
Description: as §1

BEL7402 = experiment: MTT cytotoxicity assay, BEL7402; assay type: cell-based; conditions: Homo sapiens, Bel-7402, 72 h cell treatment
Description: The cells (5 × 10^4 cells/well) were incubated overnight in 96-well plates. A series of solutions containing varying concentrations of inhibitors were added and incubated at 37°C for a period of 72 h. Subsequently, the culture medium was removed, followed by a subsequent incubation of the cells with a 5 mg/mL MTT stock solution for 4 h. After centrifugation, the precipitate was solubilized in DMSO and gently shaken for 15 min. Finally, the absorbance measurement at 570 nm was completed using a microplate reader. Data analysis was performed using GraphPad Prism 6.0 software.

Sequence of FES (P07332 whole entry): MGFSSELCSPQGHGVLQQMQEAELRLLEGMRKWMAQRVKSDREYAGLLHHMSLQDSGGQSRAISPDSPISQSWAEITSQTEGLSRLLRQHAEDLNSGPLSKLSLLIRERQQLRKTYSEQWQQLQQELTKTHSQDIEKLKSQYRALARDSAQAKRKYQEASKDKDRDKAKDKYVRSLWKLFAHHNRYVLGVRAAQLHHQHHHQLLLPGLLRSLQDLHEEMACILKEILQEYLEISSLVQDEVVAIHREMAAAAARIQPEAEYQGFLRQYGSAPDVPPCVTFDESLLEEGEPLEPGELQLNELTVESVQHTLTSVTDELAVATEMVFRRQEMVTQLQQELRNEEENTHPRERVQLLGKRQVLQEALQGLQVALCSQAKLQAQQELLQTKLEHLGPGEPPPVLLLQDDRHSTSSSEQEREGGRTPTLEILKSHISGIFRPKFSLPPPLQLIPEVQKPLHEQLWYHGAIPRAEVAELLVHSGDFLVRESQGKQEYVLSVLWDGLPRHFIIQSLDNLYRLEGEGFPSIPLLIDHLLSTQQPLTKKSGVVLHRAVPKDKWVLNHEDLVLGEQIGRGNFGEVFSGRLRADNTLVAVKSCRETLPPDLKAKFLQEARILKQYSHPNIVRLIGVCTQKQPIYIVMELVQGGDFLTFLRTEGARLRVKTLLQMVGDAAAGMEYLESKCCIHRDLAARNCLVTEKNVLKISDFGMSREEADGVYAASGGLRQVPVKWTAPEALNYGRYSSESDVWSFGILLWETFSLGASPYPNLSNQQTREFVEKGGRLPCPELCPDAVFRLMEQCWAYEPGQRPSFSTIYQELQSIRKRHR
Sequence of ERBB2 (P04626 23-1255): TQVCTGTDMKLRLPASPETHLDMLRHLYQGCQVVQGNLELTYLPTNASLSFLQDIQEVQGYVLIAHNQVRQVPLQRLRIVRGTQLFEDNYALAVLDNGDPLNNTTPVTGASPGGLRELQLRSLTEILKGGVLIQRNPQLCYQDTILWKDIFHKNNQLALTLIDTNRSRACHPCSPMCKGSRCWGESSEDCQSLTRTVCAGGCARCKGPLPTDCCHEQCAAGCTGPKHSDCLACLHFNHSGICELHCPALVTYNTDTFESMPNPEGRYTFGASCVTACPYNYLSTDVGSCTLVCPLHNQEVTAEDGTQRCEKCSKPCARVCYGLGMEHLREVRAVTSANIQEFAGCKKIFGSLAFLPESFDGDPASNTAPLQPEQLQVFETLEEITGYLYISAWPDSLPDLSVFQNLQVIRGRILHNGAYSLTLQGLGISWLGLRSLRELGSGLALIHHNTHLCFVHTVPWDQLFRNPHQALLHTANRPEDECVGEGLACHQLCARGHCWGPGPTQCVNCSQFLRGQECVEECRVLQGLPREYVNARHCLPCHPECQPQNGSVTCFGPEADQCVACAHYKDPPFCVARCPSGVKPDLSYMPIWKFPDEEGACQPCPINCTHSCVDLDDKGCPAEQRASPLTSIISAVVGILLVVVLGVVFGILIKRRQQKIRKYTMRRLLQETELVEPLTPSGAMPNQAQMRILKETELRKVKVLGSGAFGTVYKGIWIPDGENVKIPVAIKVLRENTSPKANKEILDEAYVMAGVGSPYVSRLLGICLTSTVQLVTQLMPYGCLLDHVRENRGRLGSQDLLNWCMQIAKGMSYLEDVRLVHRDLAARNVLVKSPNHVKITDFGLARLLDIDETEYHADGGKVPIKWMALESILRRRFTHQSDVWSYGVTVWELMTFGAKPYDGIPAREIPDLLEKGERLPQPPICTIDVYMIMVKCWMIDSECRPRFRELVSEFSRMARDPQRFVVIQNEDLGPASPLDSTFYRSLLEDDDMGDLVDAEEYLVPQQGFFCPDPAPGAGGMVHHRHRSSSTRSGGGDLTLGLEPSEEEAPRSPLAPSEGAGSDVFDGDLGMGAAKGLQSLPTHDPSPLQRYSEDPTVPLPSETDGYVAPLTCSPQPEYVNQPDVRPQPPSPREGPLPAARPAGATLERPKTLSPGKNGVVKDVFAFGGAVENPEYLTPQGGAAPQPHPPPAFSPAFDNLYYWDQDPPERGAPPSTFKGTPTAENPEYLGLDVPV
Sequence of PIM1 (P11309 whole entry): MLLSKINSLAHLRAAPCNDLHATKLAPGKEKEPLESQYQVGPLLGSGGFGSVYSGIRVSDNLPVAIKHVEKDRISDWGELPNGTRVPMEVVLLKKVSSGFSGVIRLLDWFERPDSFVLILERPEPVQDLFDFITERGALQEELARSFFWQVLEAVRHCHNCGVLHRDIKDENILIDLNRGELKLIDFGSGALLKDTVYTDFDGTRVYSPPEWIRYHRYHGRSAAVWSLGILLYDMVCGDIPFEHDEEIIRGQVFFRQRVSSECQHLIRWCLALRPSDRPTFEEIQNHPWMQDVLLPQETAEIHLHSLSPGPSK
Sequence of FRK (P42685 whole entry): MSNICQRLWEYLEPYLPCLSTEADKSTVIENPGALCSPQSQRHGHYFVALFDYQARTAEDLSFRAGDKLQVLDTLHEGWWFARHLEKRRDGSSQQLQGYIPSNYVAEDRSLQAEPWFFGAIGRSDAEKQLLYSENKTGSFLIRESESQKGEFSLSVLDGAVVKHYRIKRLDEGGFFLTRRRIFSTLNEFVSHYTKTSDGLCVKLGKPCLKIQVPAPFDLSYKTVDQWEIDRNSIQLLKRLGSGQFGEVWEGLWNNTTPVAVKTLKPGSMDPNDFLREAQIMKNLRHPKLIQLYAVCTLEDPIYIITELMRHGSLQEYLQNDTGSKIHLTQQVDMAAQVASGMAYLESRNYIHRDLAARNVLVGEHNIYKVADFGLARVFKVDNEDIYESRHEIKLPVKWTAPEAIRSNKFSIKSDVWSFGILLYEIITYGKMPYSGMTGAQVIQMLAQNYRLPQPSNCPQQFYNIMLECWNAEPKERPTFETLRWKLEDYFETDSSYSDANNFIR
T6 sequence (P30530 26-894): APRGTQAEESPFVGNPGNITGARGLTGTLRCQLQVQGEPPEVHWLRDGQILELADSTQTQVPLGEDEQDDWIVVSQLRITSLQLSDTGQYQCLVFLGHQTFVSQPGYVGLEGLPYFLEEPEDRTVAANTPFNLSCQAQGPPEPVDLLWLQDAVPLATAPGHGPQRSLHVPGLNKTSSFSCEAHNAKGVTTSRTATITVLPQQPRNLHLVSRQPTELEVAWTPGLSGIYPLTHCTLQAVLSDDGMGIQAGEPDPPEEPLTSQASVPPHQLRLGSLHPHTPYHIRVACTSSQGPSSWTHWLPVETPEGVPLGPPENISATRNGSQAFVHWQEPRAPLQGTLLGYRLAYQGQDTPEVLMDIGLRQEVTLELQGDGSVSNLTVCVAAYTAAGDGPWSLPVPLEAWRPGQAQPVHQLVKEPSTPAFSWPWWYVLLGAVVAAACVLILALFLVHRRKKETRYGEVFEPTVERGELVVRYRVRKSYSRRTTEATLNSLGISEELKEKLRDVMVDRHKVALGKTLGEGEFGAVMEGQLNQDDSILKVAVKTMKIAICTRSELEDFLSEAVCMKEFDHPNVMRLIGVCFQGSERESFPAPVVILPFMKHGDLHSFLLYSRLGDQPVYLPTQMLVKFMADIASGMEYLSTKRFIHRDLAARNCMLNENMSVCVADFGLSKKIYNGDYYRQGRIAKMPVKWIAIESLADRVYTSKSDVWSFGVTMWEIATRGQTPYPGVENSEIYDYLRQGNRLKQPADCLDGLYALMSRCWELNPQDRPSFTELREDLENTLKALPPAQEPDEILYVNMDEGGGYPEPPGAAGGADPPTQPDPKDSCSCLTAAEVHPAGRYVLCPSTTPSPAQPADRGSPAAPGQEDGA
Sequence of FGFR1 (P11362 22-822): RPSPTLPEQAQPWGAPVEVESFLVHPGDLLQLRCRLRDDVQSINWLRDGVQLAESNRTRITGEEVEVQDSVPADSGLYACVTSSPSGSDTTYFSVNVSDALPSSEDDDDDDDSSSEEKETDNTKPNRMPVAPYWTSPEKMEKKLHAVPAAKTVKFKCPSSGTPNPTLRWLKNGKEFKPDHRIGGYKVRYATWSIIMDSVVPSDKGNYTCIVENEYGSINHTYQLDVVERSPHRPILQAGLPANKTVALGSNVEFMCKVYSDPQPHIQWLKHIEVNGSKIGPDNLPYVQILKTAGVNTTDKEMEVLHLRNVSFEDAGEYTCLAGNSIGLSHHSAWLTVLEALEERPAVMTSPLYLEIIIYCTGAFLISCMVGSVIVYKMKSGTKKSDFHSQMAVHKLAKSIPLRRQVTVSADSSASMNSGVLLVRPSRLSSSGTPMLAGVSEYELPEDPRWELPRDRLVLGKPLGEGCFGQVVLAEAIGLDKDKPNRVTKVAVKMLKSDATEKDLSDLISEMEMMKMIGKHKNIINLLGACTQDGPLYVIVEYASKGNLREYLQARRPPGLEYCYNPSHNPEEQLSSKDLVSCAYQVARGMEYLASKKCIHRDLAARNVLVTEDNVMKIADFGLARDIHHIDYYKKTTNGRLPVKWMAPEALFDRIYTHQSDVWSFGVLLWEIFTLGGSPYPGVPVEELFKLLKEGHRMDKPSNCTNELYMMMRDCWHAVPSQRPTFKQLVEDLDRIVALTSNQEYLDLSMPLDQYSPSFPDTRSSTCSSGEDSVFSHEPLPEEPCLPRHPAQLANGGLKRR
T4 sequence (P07948 whole entry): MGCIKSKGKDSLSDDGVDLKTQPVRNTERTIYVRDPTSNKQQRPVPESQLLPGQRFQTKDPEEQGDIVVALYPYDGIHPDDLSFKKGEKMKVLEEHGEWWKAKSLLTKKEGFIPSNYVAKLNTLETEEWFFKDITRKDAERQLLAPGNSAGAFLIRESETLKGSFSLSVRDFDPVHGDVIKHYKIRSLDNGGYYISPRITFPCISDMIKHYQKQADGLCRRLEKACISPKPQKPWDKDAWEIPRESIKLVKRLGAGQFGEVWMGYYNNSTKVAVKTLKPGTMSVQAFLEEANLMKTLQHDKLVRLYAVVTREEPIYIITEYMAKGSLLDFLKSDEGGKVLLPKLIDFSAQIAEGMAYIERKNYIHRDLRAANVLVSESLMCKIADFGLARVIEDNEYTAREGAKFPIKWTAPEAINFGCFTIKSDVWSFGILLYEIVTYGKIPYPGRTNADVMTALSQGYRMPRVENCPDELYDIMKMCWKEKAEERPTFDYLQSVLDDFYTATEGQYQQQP

Cn1cc(-c2cc3cnc(Nc4ccc(-c5cncn5/C=C/C(=O)NO)cc4Cl)cc3n2C(=O)OC(C)(C)C)cn1 [MPH-5] showed an IC50 [1] of over 10 µM, an IC50 (JAK1) of over 10 µM and an IC50 (BMX) of over 10 µM. The IC50 (FGR) was over 10 µM, the IC50 (CSF1R) was over 10 µM and the IC50 (FES) was over 10 µM. For the same molecule, the IC50 (NTRK1) was over 10 µM, the IC50 (LYN) was over 10 µM and the IC50 (FGFR1) was over 10 µM. For the same molecule, the IC50 (NTRK3) was over 10 µM, the IC50 (AXL) was over 10 µM and the IC50 (EPHB4) was over 10 µM. The IC50 (SYK) was over 10 µM, the IC50 (NTRK2) was over 10 µM and the IC50 (EPHA3) was over 10 µM. The IC50 (HDAC1) was over 10 µM, the IC50 (TYRO3) was over 10 µM and the IC50 (BLK) was over 10 µM. The IC50 (ALK) was over 10 µM, the IC50 (EPHB3) was over 10 µM and the IC50 (PIM1) was over 10 µM. It also gave an IC50 (ABL1) of over 10 µM, an IC50 (HCK) of over 10 µM and an IC50 (PTK2B) of over 10 µM. For the same molecule, the IC50 (RAF1) was over 10 µM, the IC50 (FYN) was over 10 µM and the IC50 (EPHB1) was over 10 µM. For the same molecule, the IC50 (EPHA8) was over 10 µM, the IC50 (CDK2) was over 10 µM and the IC50 (HDAC4) was over 10 µM. It also gave an IC50 (JAK2) of over 10 µM, an IC50 (EPHA1) of over 10 µM and an IC50 (HDAC3) of over 10 µM. The IC50 (FRK) was over 10 µM, the IC50 (ZAP70) was over 10 µM and the IC50 (EPHA5) was over 10 µM. The IC50 (ERBB2) was over 10 µM, the IC50 (MERTK) was over 10 µM and the IC50 (BEL7402) was 0.86 µM.
